Test results taken from patent US11358952B2, “Substituted 4-aminoisoindoline-1,3-dione compounds, compositions thereof, and methods of treatment therewith” (Celgene Corporation, priority 2018, dated 2022).

What follows are compounds tested on SU-DHL-4 cell line (assay: SU-DHL-4 cell proliferation assay (Cell Titer-Glo viability)). Conditions: Homo sapiens; cell viability IC50 activity level, DLBCL cell line SU-DHL-4, 120 hours post-treatment; read-out: SU-DHL-4 Act.
Assay type: cell-based
Outline: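 SU-DHL-4 cells (500/well, RPMI-1640 + 10% FBS) exposed to 20-point compound dilutions (0.5 nM–10 μM, 0.1% DMSO) for 120 h at 37°C, 5% CO2. Viability measured by Cell Titer-Glo luminescence at t0 and at 120 h. IC50 is the concentration giving 50% of DMSO control, from a four-parameter logistic fit.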

Row | SMILES | IC50 [nM]
1 | CC(C)COC1CCN(Cc2ccc(CNc3cccc4c3C(=O)N(C3CCC(=O)NC3=O)C4=O)cc2)CC1 (centres unmarked) [Cpd 125, 2-(2,6-dioxopiperidin-3-yl)-4-(4-((4-isobutoxypiperidin-1-yl)methyl)benzylamino)isoindoilne-1,3-dione] | 200 to 500
2 | Cc1cc(CNc2cccc3c2C(=O)N(C2CCC(=O)NC2=O)C3=O)ccc1CN1CCN(c2ccc(C#N)cn2)CC1 (centres unmarked) [Cpd 63, 6-(4-(4-((2-(2,6-dioxopiperidin-3-yl)-1,3-dioxoisoindolin-4-ylamino)methyl)-2-methylbenzyl)piperazin-1-yl)nicotinonitrile] | < 200
3 | O=C1CCC(N2C(=O)c3cccc(NCc4ccc(CN5CCC(n6cccn6)CC5)cc4)c3C2=O)C(=O)N1 (centres unmarked) [Cpd 25, 4-(4-((4-(1H-pyrazol-1-yl)piperidin-1-yl)methyl)benzylamino)-2-(2,6-dioxopiperidin-3-yl)isoindoline-1,3-dione] | 200 to 500
4 | Cc1cc(C#N)ccc1N1CCN(Cc2ccc(CNc3cccc4c3C(=O)N(C3CCC(=O)NC3=O)C4=O)cc2)CC1 (centres unmarked) [Cpd 8, 4-(4-(4-((2-(2,6-dioxopiperidin-3-yl)-1,3-dioxoisoindolin-4-ylamino)methyl)benzyl)piperazin-1-yl)-3-methylbenzonitrile] | 200 to 500
5 | Cc1cc(CNc2cccc3c2C(=O)N(C2CCC(=O)NC2=O)C3=O)ccc1CN1CC(N2C3CCC2COC3)C1 (centres unmarked) [Cpd 247, 4-(4-((3-(3-oxa-8-azabicyclo[3.2.1]octan-8-yl)azetidin-1-yl)methyl)-3-methylbenzylamino)-2-(2,6-dioxopiperidin-3-yl)isoindoline-1,3-dione] | < 200
6 | O=C1CCC(N2C(=O)c3cccc(NCc4ccc(CN5CCC(c6ccccn6)CC5)cc4)c3C2=O)C(=O)N1 (centres unmarked) [Cpd 31, 2-(2,6-dioxopiperidin-3-yl)-4-(4-((4-(pyridin-2-yl)piperidin-1-yl)methyl)benzylamino)isoindoline-1,3-dione] | 200 to 500
7 | CC(C)(C)OC1CCN(Cc2ccc(CNc3cccc4c3C(=O)N(C3CCC(=O)NC3=O)C4=O)cc2F)CC1 (centres unmarked) [Cpd 146, 4-(4-((4-tert-butoxypiperidin-1-yl)methyl)-3-fluorobenzylamino)-2-(2,6-dioxopiperidin-3-yl)isoindoline-1,3-dione] | < 200
8 | O=C1CCC(N2C(=O)c3cccc(NCc4ccc(CN5CCN(c6ncccc6F)CC5)cc4)c3C2=O)C(=O)N1 (centres unmarked) [Cpd 30, 2-(2,6-dioxopiperidin-3-yl)-4-(4-((4-(3-fluoropyridin-2-yl)piperazin-1-yl)methyl)benzylamino)isoindoline-1,3-dione] | < 200
9 | NC(=O)c1ccc(N2CCN(Cc3ccc(CNc4cccc5c4C(=O)N(C4CCC(=O)NC4=O)C5=O)cc3)CC2)cn1 (centres unmarked) [Cpd 17, 5-(4-(4-((2-(2,6-dioxopiperidin-3-yl)-1,3-dioxoisoindolin-4-ylamino)methyl)benzyl)piperazin-1-yl)picolinamide] | < 200
10 | O=C1CCC(N2C(=O)c3cccc(NCc4ccc(CN5CCC6(CCC6)C5)cc4)c3C2=O)C(=O)N1 (centres unmarked) [Cpd 73, 4-(4-(6-azaspiro[3.4]octan-6-ylmethyl)benzylamino)-2-(2,6-dioxopiperidin-3-yl)isoindoline-1,3-dione] | 751 to 1000
11 | Cc1cc(CNc2cccc3c2C(=O)N(C2CCC(=O)NC2=O)C3=O)ccc1CN1CCN(c2ccc(C#N)cc2C)CC1 (centres unmarked) [Cpd 60, 4-(4-(4-((2-(2,6-dioxopiperidin-3-yl)-1,3-dioxoisoindolin-4-ylamino)methyl)-2-methylbenzyl)piperazin-1-yl)-3-methylbenzonitrile] | < 200
12 | Cc1cc(C#N)cc(F)c1N1CCN(Cc2ccc(CNc3cccc4c3C(=O)N(C3CCC(=O)NC3=O)C4=O)cc2)CC1 (centres unmarked) [Cpd 27, 4-(4-(4-((2-(2,6-dioxopiperidin-3-yl)-1,3-dioxoisoindolin-4-ylamino)methyl)benzyl)piperazin-1-yl)-3-fluoro-5-methylbenzonitrile] | 200 to 500
13 | CC(C)(C)C1CCN(Cc2ccc(CNc3cccc4c3C(=O)N(C3CCC(=O)NC3=O)C4=O)cc2)CC1 (centres unmarked) [Cpd 37, 4-(4-((4-tert-butylpiperidin-1-yl)methyl)benzylamino)-2-(2,6-dioxopiperidin-3-yl)isoindoline-1,3-dione] | < 200

The remaining lines, values ahead:

Row | IC50 [nM] | SMILES
14 | < 200 | O=C1CCC(N2C(=O)c3cccc(NCc4ccc(CN5CCN(CC6CC6)CC5)cc4F)c3C2=O)C(=O)N1 (centres unmarked) [Cpd 118, 4-(4-((4-(cyclopropylmethyl)piperazin-1-yl)methyl)-2-fluorobenzylamino)-2-(2,6-dioxopiperidin-3-yl)isoindoline-1,3-dione]
15 | < 200 | CC(C)C1CCN(Cc2ccc(CNc3cccc4c3C(=O)N(C3CCC(=O)NC3=O)C4=O)cc2F)CC1 (centres unmarked) [Cpd 99, 2-(2,6-dioxopiperidin-3-yl)-4-(3-fluoro-4-((4-isopropylpiperidin-1-yl)methyl)benzylamino)isoindoline-1,3-dione]
16 | < 200 | CCOC1(C)CCN(Cc2ccc(CNc3cccc4c3C(=O)N(C3CCC(=O)NC3=O)C4=O)cc2)CC1 (centres unmarked) [Cpd 89, 2-(2,6-dioxopiperidin-3-yl)-4-(4-((4-ethoxy-4-methylpiperidin-1-yl)methyl)benzylamino)isoindoline-1,3-dione]
17 | < 200 | O=C1CCC(N2C(=O)c3cccc(NCc4ccc(CN5CC6(CCOCC6)C5)cc4F)c3C2=O)C(=O)N1 (centres unmarked) [Cpd 221, 4-(4-(7-oxa-2-azaspiro[3.5]nonan-2-ylmethyl)-2-fluorobenzylamino)-2-(2,6-dioxopiperidin-3-yl)isoindoline-1,3-dione]
18 | < 200 | NC(=O)c1ccc(N2CCN(Cc3ccc(CNc4cccc5c4C(=O)N([C@H]4CCC(=O)NC4=O)C5=O)cc3)CC2)nc1 [Cpd 203, (S)-6-(4-(4-((2-(2,6-dioxopiperidin-3-yl)-1,3-dioxoisoindolin-4-ylamino)methyl)benzyl)piperazin-1-yl)nicotinamide]
19 | < 200 | O=C1CCC(N2C(=O)c3cccc(NCc4ccc(CN5Cc6ccccc6C5)cc4)c3C2=O)C(=O)N1 (centres unmarked) [Cpd 163, 2-(2,6-dioxopiperidin-3-yl)-4-(4-(isoindolin-2-ylmethyl)benzylamino)isoindoline-1,3-dione]
20 | < 200 | NC(=O)c1ccc(N2CCN(Cc3ccc(CNc4cccc5c4C(=O)N(C4CCC(=O)NC4=O)C5=O)c(F)c3)CC2)cc1 (centres unmarked) [Cpd 139, 4-(4-(4-((2-(2,6-dioxopiperidin-3-yl)-1,3-dioxoisoindolin-4-ylamino)methyl)-3-fluorobenzyl)piperazin-1-yl)benzamide]
21 | < 200 | Cc1cc(CNc2cccc3c2C(=O)N(C2CCC(=O)NC2=O)C3=O)ccc1CN1CC(Oc2ccc(C#N)cc2)C1 (centres unmarked) [Cpd 83, 4-(1-(4-((2-(2,6-dioxopiperidin-3-yl)-1,3-dioxoisoindolin-4-ylamino)methyl)-2-methylbenzyl)azetidin-3-yloxy)benzonitrile]
22 | 751 to 1000 | Cc1cc(CNc2cccc3c2C(=O)N(C2CCC(=O)NC2=O)C3=O)ccc1CN1CCN(c2cccnc2C(N)=O)CC1 (centres unmarked) [Cpd 179, 3-(4-(4-((2-(2,6-dioxopiperidin-3-yl)-1,3-dioxoisoindolin-4-ylamino)methyl)-2-methylbenzyl)piperazin-1-yl)picolinamide]
23 | 501 to 750 | Cc1cc(CN2CCN(C(C)(C)C)CC2)ccc1CNc1cccc2c1C(=O)N(C1CCC(=O)NC1=O)C2=O (centres unmarked) [Cpd 97, 4-(4-((4-tert-butylpiperazin-1-yl)methyl)-2-methylbenzylamino)-2-(2,6-dioxopiperidin-3-yl)isoindolline-1,3-dione]
24 | < 200 | CCS(=O)(=O)C1CCN(Cc2ccc(CNc3cccc4c3C(=O)N(C3CCC(=O)NC3=O)C4=O)c(F)c2)CC1 (centres unmarked) [Cpd 173]
25 | < 200 | N#Cc1cccc(C2CN(Cc3ccc(CNc4cccc5c4C(=O)N(C4CCC(=O)NC4=O)C5=O)c(F)c3)C2)c1 (centres unmarked) [Cpd 121, 3-(1-(4-((2-(2,6-dioxopiperidin-3-yl)-1,3-dioxoisoindolin-4-ylamino)methyl)-3-fluorobenzyl)azetidin-3-yl)benzonitrile]
26 | < 200 | Cc1cc(CNc2cccc3c2C(=O)N(C2CCC(=O)NC2=O)C3=O)ccc1CN1CC2(CCOCC2)C1 (centres unmarked) [Cpd 220, 4-(4-(7-oxa-2-azaspiro[3.5]nonan-2-ylmethyl)-3-methylbenzylamino)-2-(2,6-dioxopiperidin-3-yl)isoindoline-1,3-dione]
27 | 501 to 750 | N#Cc1cccc(N2CCN(Cc3ccc(CNc4cccc5c4C(=O)N(C4CCC(=O)NC4=O)C5=O)cc3)CC2)n1 (centres unmarked) [Cpd 138, 6-(4-(4-((2-(2,6-dioxopiperidin-3-yl)-1,3-dioxoisoindolin-4-ylamino)methyl)benzyl)piperazin-1-yl)picolinonitrile]
28 | 751 to 1000 | CCc1nnc(N2CCN(Cc3ccc(CNc4cccc5c4C(=O)N(C4CCC(=O)NC4=O)C5=O)cc3)CC2)o1 (centres unmarked) [Cpd 198, 2-(2,6-dioxopiperidin-3-yl)-4-(4-((4-(5-ethyl-1,3,4-oxadiazol-2-yl)piperazin-1-yl)methyl)benzylamino)isoindoline-1,3-dione]
29 | < 200 | O=C1CCC(N2C(=O)c3cccc(NCc4ccc(CN5CCC6(CCNC6=O)CC5)cc4F)c3C2=O)C(=O)N1 (centres unmarked) [Cpd 150, 2-(2,6-dioxopiperidin-3-yl)-4-(2-fluoro-4-((1-oxo-2,8-diazaspiro[4.5]decan-8-yl)methyl)benzylamino)isoindoline-1,3-dione]
30 | < 200 | CCC1(OC)CCN(Cc2ccc(CNc3cccc4c3C(=O)N(C3CCC(=O)NC3=O)C4=O)c(F)c2)CC1 (centres unmarked) [Cpd 156, 2-(2,6-dioxopiperidin-3-yl)-4-(4-((4-ethyl-4-methoxypiperidin-1-yl)methyl)-2-fluorobenzylamino)isoindoline-1,3-dione]
31 | 200 to 500 | Cc1cc(CNc2cccc3c2C(=O)N(C2CCC(=O)NC2=O)C3=O)ccc1CN1CC(n2cccn2)C1 (centres unmarked) [Cpd 77, 4-(4-((3-(1H-pyrazol-1-yl)azetidin-1-yl)methyl)-3-methylbenzylamino)-2-(2,6-dioxopiperidin-3-yl)isoindoline-1,3-dione]
32 | 200 to 500 | O=C1CCC(N2C(=O)c3cccc(NCc4ccc(CN5CC6(COC6)C5)cc4F)c3C2=O)C(=O)N1 (centres unmarked) [Cpd 226, 4-(4-(2-oxa-6-azaspiro[3.3]heptan-6-ylmethyl)-2-fluorobenzylamino)-2-(2,6-dioxopiperidin-3-yl)isoindoline-1,3-dione]
